US20240208992A1, “MACROCYCLES AS CFTR MODULATORS” (Idorsia Pharmaceuticals Ltd, priority 2021, published 2024)

Molecular target: human F508del-CFTR (Homo sapiens, UniProt P13569, DEL508-508)
Experiment: F508del-CFTR cell surface expression (corrector activity), DiscoveRx ß-galactosidase complementation chemiluminescence assay in recombinant U2OS cell line;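 note: U2OS cells co-expressing ProLink-tagged F508del-CFTR and a membrane-anchored enzyme acceptor, where more surface CFTR restores β-galactosidase activity measured by chemiluminescence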
Conditions: U2OS cell line, 16h compound incubation; for EC50: EC50, F508del-CFTR cell surface expression, geomean values; for Emax: U2OS, in relation to the Emax of the corrector lumacaftor (=100%), arithmetic mean values

Sequence of human F508del-CFTR (P13569 with tags, fused parts or gaps DEL508-508): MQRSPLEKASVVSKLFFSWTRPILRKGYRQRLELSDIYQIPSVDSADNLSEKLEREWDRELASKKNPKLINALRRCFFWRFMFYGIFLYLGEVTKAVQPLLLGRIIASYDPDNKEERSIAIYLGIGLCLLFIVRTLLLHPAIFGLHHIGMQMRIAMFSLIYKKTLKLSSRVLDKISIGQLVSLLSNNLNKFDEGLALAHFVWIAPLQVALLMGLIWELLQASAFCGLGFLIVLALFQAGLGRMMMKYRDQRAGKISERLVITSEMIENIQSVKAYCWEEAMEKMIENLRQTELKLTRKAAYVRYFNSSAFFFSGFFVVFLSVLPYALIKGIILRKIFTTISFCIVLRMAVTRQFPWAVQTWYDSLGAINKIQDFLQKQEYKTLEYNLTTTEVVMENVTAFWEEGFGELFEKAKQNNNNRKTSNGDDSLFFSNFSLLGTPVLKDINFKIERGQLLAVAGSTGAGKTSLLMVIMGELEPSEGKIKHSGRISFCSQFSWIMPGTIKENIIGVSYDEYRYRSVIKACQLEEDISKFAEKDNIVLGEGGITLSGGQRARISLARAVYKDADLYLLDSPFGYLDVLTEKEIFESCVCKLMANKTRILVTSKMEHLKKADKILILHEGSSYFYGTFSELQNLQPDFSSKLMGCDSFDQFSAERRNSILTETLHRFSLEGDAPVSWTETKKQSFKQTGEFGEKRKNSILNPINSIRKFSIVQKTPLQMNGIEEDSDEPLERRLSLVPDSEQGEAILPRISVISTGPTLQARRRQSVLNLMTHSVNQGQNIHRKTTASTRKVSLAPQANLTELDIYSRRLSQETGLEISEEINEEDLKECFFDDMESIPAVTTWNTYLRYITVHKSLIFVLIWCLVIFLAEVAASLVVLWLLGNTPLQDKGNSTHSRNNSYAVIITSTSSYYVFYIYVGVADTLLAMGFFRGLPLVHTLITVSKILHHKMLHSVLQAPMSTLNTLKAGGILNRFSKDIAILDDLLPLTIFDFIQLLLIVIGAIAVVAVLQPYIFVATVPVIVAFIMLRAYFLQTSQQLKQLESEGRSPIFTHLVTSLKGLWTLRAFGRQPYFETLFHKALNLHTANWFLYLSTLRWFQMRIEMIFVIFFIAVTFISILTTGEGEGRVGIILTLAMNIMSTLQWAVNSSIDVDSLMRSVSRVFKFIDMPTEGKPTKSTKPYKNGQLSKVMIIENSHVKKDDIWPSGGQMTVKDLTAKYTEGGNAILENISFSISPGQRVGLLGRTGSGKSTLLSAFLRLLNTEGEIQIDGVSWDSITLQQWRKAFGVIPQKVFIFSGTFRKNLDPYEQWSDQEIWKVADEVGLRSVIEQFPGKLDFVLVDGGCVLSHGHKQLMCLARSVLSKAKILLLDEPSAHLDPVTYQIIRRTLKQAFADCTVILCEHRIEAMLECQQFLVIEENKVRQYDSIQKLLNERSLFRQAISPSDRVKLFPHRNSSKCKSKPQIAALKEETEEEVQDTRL

| SMILES | EC50 [nM] | Emax [%] |
| --- | --- | --- |
| COc1nccc2c1C(=O)N[C@H](C(=O)NCCc1cnn(C3CC3)c1)CC(=O)N(C)[C@@H](CC(C)C)C(=O)N1CCCC[C@@H]1C(=O)N[C@H](Cc1ccccc1)CO2 [Example 176, (7S,11S,17aR,20R)-20-benzyl-N-(2-(1-cyclopropyl-1H-pyrazol-4-yl)ethyl)-11-isobutyl-4-methoxy-10-methyl-5,9,12,18-tetraoxo-5,6,7,8,9,10,11,12,15,16,17,17a,18,19,20,21-hexadecahydro-14H-dipyrido[2,1-f:3′,4′-p][1]oxa[4,7,10,14]tetraazacycloheptadecine-7-carboxamide] | 821 | 245 |
| COc1nccc2c1C(=O)N[C@H](C(=O)NCCc1cc(C(F)(F)F)no1)CC(=O)N(C)[C@@H](CC(C)C)C(=O)N1CCCC[C@@H]1C(=O)N[C@H](Cc1ccccc1)CO2 [Example 177, (7S,11S,17aR,20R)-20-benzyl-11-isobutyl-4-methoxy-10-methyl-5,9,12,18-tetraoxo-N-(2-(3-(trifluoromethyl)isoxazol-5-yl)ethyl)-5,6,7,8,9,10,11,12,15,16,17,17a,18,19,20,21-hexadecahydro-14H-dipyrido[2,1-f:3′,4′-p][1]oxa[4,7,10,14]tetraazacycloheptadecine-7-carboxamide] | 647 | 248 |
| COc1nccc2c1C(=O)N[C@H](C(=O)NCCc1nc(C(F)(F)F)no1)CC(=O)N(C)[C@@H](CC(C)C)C(=O)N1CCCC[C@@H]1C(=O)N[C@H](Cc1ccccc1)CO2 [Example 178, (7S,11S,17aR,20R)-20-benzyl-11-isobutyl-4-methoxy-10-methyl-5,9,12,18-tetraoxo-N-(2-(3-(trifluoromethyl)-1,2,4-oxadiazol-5-yl)ethyl)-5,6,7,8,9,10,11,12,15,16,17,17a,18,19,20,21-hexadecahydro-14H-dipyrido[2,1-f:3′,4′-p][1]oxa[4,7,10,14]tetraazacycloheptadecine-7-carboxamide] | 680 | 237 |
| COc1nccc2c1C(=O)N[C@H](C(=O)NCCn1cc(C3CC3)cn1)CC(=O)N(C)[C@@H](CC(C)C)C(=O)N1CCCC[C@@H]1C(=O)N[C@H](Cc1ccccc1)CO2 [Example 179, (7S,11S,17aR,20R)-20-benzyl-N-(2-(4-cyclopropyl-1H-pyrazol-1-yl)ethyl)-11-isobutyl-4-methoxy-10-methyl-5,9,12,18-tetraoxo-5,6,7,8,9,10,11,12,15,16,17,17a,18,19,20,21-hexadecahydro-14H-dipyrido[2,1-f:3′,4′-p][1]oxa[4,7,10,14]tetraazacycloheptadecine-7-carboxamide] | 731 | 251 |
| COc1cccc(CCNC(=O)[C@@H]2CC(=O)N(C)[C@@H](CC(C)C)C(=O)N3CCCC[C@@H]3C(=O)N[C@H](Cc3ccccc3)COc3ccnc(OC)c3C(=O)N2)c1 [Example 180, (7S,11S,17aR,20R)-20-benzyl-11-isobutyl-4-methoxy-N-(3-methoxyphenethyl)-10-methyl-5,9,12,18-tetraoxo-5,6,7,8,9,10,11,12,15,16,17,17a,18,19,20,21-hexadecahydro-14H-dipyrido[2,1-f:3′,4′-p][1]oxa[4,7,10,14]tetraazacycloheptadecine-7-carboxamide] | 388 | 257 |
| COc1nccc2c1C(=O)N[C@H](C(=O)NCCc1ccc(-c3ncccn3)cc1)CC(=O)N(C)[C@@H](CC(C)C)C(=O)N1CCCC[C@@H]1C(=O)N[C@H](Cc1ccccc1)CO2 [Example 181, (7S,11S,17aR,20R)-20-benzyl-11-isobutyl-4-methoxy-10-methyl-5,9,12,18-tetraoxo-N-(4-(pyrimidin-2-yl)phenethyl)-5,6,7,8,9,10,11,12,15,16,17,17a,18,19,20,21-hexadecahydro-14H-dipyrido[2,1-f:3′,4′-p][1]oxa[4,7,10,14]tetraazacycloheptadecine-7-carboxamide] | 718 | 251 |
| COc1nccc2c1C(=O)N[C@H](C(=O)NCCc1nc(-c3ccccc3)no1)CC(=O)N(C)[C@@H](CC(C)C)C(=O)N1CCCC[C@@H]1C(=O)N[C@H](Cc1ccccc1)CO2 [Example 182, (7S,11S,17aR,20R)-20-benzyl-11-isobutyl-4-methoxy-10-methyl-5,9,12,18-tetraoxo-N-(2-(3-phenyl-1,2,4-oxadiazol-5-yl)ethyl)-5,6,7,8,9,10,11,12,15,16,17,17a,18,19,20,21-hexadecahydro-14H-dipyrido[2,1-f:3′,4′-p][1]oxa[4,7,10,14]tetraazacycloheptadecine-7-carboxamide] | 406 | 270 |
| COc1nccc2c1C(=O)N[C@H](C(=O)NCCc1ccccc1)CC(=O)N(C)[C@@H](CC(C)C)C(=O)N1CCCC[C@@H]1C(=O)N[C@H](Cc1ccccc1)CO2 [Example 183, (7S,11S,17aR,20R)-20-benzyl-11-isobutyl-4-methoxy-10-methyl-5,9,12,18-tetraoxo-N-phenethyl-5,6,7,8,9,10,11,12,15,16,17,17a,18,19,20,21-hexadecahydro-14H-dipyrido[2,1-f:3′,4′-p][1]oxa[4,7,10,14]tetraazacycloheptadecine-7-carboxamide] | 621 | 237 |
| COc1nccc2c1C(=O)N[C@H](C(=O)NCCc1ccc(Br)cc1)CC(=O)N(C)[C@@H](CC(C)C)C(=O)N1CCCC[C@@H]1C(=O)N[C@H](Cc1ccccc1)CO2 [Example 184, (7S,11S,17aR,20R)-20-benzyl-N-(4-bromophenethyl)-11-isobutyl-4-methoxy-10-methyl-5,9,12,18-tetraoxo-5,6,7,8,9,10,11,12,15,16,17,17a,18,19,20,21-hexadecahydro-14H-dipyrido[2,1-f:3′,4′-p][1]oxa[4,7,10,14]tetraazacycloheptadecine-7-carboxamide] | 410 | 205 |
| COc1ccc(CCNC(=O)[C@@H]2CC(=O)N(C)[C@@H](CC(C)C)C(=O)N3CCCC[C@@H]3C(=O)N[C@H](Cc3ccccc3)COc3ccnc(OC)c3C(=O)N2)cc1 [Example 185, (7S,11S,17aR,20R)-20-benzyl-11-isobutyl-4-methoxy-N-(4-methoxyphenethyl)-10-methyl-5,9,12,18-tetraoxo-5,6,7,8,9,10,11,12,15,16,17,17a,18,19,20,21-hexadecahydro-14H-dipyrido[2,1-f:3′,4′-p][1]oxa[4,7,10,14]tetraazacycloheptadecine-7-carboxamide] | 379 | 275 |
| COc1nccc2c1C(=O)N[C@H](C(=O)NCCc1cccc(C)c1)CC(=O)N(C)[C@@H](CC(C)C)C(=O)N1CCCC[C@@H]1C(=O)N[C@H](Cc1ccccc1)CO2 [Example 186, (7S,11S,17aR,20R)-20-benzyl-11-isobutyl-4-methoxy-10-methyl-N-(3-methylphenethyl)-5,9,12,18-tetraoxo-5,6,7,8,9,10,11,12,15,16,17,17a,18,19,20,21-hexadecahydro-14H-dipyrido[2,1-f:3′,4′-p][1]oxa[4,7,10,14]tetraazacycloheptadecine-7-carboxamide] | 644 | 209 |
| COc1nccc2c1C(=O)N[C@H](C(=O)NCCc1cnn(C3CC3)n1)CC(=O)N(C)[C@@H](CC(C)C)C(=O)N1CCCC[C@@H]1C(=O)N[C@H](Cc1ccccc1)CO2 [Example 187, (7S,11S,17aR,20R)-20-benzyl-N-(2-(2-cyclopropyl-2H-1,2,3-triazol-4-yl)ethyl)-11-isobutyl-4-methoxy-10-methyl-5,9,12,18-tetraoxo-5,6,7,8,9,10,11,12,15,16,17,17a,18,19,20,21-hexadecahydro-14H-dipyrido[2,1-f:3′,4′-p][1]oxa[4,7,10,14]tetraazacycloheptadecine-7-carboxamide] | 645 | 267 |
| COc1cnn(CCNC(=O)[C@@H]2CC(=O)N(C)[C@@H](CC(C)C)C(=O)N(C)C3(CC3)C(=O)N[C@H](Cc3ccccc3)COc3cnc4ccc(F)cc4c3C(=O)N2)c1 [Example 188, (3′S,7′S,13′R)-13′-benzyl-20′-fluoro-7′-isobutyl-N-(2-(4-methoxy-1H-pyrazol-1-yl)ethyl)-6′,9′-dimethyl-1′,5′,8′,11′-tetraoxo-2′,3′,4′,5′,6′,7′,8′,9′,11′,12′,13′,14′-dodecahydro-1′H-spiro[cyclopropane-1,10′-[1]oxa[4,7,10,14]tetraazacycloheptadecino[17,16-c]quinoline]-3′-carboxamide] | 586 | 275 |
| C#Cc1cccc(CCNC(=O)[C@@H]2CC(=O)N(C)[C@@H](CC(C)C)C(=O)N3CCCC[C@@H]3C(=O)N[C@H](Cc3ccccc3)COc3ccnc(OC)c3C(=O)N2)c1 [Example 189, (7S,11S,17aR,20R)-20-benzyl-N-(3-ethynylphenethyl)-11-isobutyl-4-methoxy-10-methyl-5,9,12,18-tetraoxo-5,6,7,8,9,10,11,12,15,16,17,17a,18,19,20,21-hexadecahydro-14H-dipyrido[2,1-f:3′,4′-p][1]oxa[4,7,10,14]tetraazacycloheptadecine-7-carboxamide] | 453 | 270 |
| COc1nccc2c1C(=O)N[C@H](C(=O)NCCc1nc3c(s1)CCC3)CC(=O)N(C)[C@@H](CC(C)C)C(=O)N1CCCC[C@@H]1C(=O)N[C@H](Cc1ccccc1)CO2 [Example 190, (7S,11S,17aR,20R)-20-benzyl-N-(2-(5,6-dihydro-4H-cyclopenta[d]thiazol-2-yl)ethyl)-11-isobutyl-4-methoxy-10-methyl-5,9,12,18-tetraoxo-5,6,7,8,9,10,11,12,15,16,17,17a,18,19,20,21-hexadecahydro-14H-dipyrido[2,1-f:3′,4′-p][1]oxa[4,7,10,14]tetraazacycloheptadecine-7-carboxamide] | 334 | 310 |
